The results in this text go back to patent US10759766B2, “Certain chemical entities, compositions, and methods” (NeuPharma, Inc., priority 2011, dated 2020).

The target in one test is BRAF (Homo sapiens (Human), UniProt P15056). Description: Z′-LYTE kinase inhibition assay (Invitrogen), BRAF. Format: biochemical. Particulars: 1 μM compound, Z′-LYTE method; for inhibition at 1 µM: read-out: % inhibition at 1 μM against BRAF. On the procedure:
Inhibitory activities Inhibitory activities of compounds against BRAF, and BRAF V600E were measured by Invitrogen using Z′-LYTE® Method as briefly described in the following. 4× Test compounds are dissolved in 1% DMSO. […] ATP solutions are diluted to a 4×ATP working concentration in Kinase Buffer (50 mM HEPES pH 7.5, 0.01% BRIJ-35, 10 mM MgCl2, 1 mM EGTA). Reaction started by 30-second shaking of mixture consisting of 2.5 μL 4× test compound, […] and 2.5 μL 4×ATP Solution on Bar-coded Corning, low volume NBS, black 384-well plate (Corning Cat. #3676). Then the mixture was incubated for 60-minute at room temperature for the kinase reaction, followed by addition of 5 μL of a 1:1024 dilution of development reagent A and 30-second plate shake. The mixture was then incubated for another 60-minute at room temperature for development reaction. Fluorescence was read by plate reader. IC50 was calculated by plotting the concentration of compound vs the percentage of inhibition in treated wells using GraphPad Prism 5.

The target of another test is BRAF V600E (Homo sapiens (Human), UniProt P15056, V600E). Put plainly: Z′-LYTE kinase inhibition assay (Invitrogen), BRAF V600E. Format: biochemical. Particulars: Z′-LYTE method; for inhibition at 1 µM: read-out: % inhibition at 1 μM against BRAF V600E; for IC50: read-out: IC50 against BRAF V600E. The essentials:
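FRET-based Z′-LYTE peptide phosphorylation format in 50 mM HEPES pH 7.5, 0.01% BRIJ-35, 10 mM MgCl2, 1 mM EGTA with ATP. Kinase reaction 60 min at room temperature, then protease development step 60 min at room temperature before fluorescence read. IC50 from compound concentration versus percent inhibition.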

Another test has as its target KDR (VEGFR2) (Homo sapiens (Human), UniProt P35968). Put plainly: Z′-LYTE kinase inhibition assay (Invitrogen), KDR. Particulars: Z′-LYTE method; for inhibition at 1 µM: read-out: % inhibition at 1 μM against KDR; for IC50: read-out: IC50 against KDR. Format: biochemical. The essentials:
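Z′-LYTE FRET assay: 10 μL reactions with 0.5–11.7 ng KDR and 2 μM Tyr 01 peptide in 50 mM HEPES pH 7.5, 10 mM MgCl2, 1 mM EGTA, 0.01% BRIJ-35, 1 h at room temperature. Development Reagent B (1:256) added for 60 min, fluorescence read; IC50 from concentration–inhibition curves.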

A further test deals with A375 cells. Put plainly: Inhibition of cancer cell growth, MTT assay, A375. Format: cell-based. In a few lines: (§1)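 Cells grown in RPMI 1640 with 10% FBS were seeded at about 4000 cells/well, left 24 h, then exposed to compound for 72 h (1% DMSO final). MTT absorbance at 570 nm was compared with viable cells at time of addition to give growth inhibition; IC50 from concentration–inhibition plots, triplicates.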
A general note: Tetrazolium assays rely on reduction of a dye to a coloured formazan, in cell work by metabolically active cells.

The test system of the next test is A549 cells. Put plainly: Inhibition of cancer cell growth, MTT assay, A549. In kind it is cell-based. In a few lines: as §1
Setting [1] is: Homo sapiens, A-375, 72 h exposure.
The mark [2] stands for this setting: Homo sapiens, A549, 72 h exposure.

Sequence of KDR (VEGFR2) (P35968 20-1356): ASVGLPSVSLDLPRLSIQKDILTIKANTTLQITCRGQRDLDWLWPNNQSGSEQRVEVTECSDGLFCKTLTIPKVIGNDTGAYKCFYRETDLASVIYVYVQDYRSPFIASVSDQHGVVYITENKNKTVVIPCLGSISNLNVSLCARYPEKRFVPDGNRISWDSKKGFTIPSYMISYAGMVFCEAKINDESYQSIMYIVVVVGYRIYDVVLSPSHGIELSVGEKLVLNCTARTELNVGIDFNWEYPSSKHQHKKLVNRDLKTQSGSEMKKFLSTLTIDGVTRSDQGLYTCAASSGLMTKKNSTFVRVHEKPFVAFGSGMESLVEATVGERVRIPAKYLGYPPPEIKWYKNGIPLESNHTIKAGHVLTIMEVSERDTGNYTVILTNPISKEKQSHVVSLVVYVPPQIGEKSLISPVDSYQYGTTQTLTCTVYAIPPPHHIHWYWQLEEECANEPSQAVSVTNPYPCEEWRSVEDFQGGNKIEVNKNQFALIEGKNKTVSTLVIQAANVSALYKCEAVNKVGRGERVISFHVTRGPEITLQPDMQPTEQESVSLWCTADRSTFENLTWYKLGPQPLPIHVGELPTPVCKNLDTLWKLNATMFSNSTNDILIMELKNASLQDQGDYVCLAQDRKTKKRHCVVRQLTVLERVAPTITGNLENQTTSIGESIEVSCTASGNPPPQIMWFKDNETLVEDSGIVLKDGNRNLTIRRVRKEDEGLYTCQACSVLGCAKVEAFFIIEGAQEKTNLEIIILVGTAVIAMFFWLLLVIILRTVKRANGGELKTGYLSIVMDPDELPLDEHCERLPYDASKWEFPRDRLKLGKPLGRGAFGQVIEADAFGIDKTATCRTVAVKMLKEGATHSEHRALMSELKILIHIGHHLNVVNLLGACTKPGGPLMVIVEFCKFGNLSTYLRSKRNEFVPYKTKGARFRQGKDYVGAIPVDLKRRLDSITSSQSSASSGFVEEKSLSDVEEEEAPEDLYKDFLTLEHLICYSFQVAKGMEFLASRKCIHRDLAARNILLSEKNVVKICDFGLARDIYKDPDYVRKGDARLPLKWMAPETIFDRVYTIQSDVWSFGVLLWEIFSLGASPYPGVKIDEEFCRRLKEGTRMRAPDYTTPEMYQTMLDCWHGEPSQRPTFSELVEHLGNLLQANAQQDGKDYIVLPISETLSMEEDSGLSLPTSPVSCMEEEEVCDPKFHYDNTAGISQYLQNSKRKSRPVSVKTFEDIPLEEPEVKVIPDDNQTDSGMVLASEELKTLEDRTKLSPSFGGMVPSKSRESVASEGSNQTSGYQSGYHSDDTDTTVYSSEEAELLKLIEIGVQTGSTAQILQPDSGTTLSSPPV
Sequence of BRAF V600E (P15056 whole entry V600E): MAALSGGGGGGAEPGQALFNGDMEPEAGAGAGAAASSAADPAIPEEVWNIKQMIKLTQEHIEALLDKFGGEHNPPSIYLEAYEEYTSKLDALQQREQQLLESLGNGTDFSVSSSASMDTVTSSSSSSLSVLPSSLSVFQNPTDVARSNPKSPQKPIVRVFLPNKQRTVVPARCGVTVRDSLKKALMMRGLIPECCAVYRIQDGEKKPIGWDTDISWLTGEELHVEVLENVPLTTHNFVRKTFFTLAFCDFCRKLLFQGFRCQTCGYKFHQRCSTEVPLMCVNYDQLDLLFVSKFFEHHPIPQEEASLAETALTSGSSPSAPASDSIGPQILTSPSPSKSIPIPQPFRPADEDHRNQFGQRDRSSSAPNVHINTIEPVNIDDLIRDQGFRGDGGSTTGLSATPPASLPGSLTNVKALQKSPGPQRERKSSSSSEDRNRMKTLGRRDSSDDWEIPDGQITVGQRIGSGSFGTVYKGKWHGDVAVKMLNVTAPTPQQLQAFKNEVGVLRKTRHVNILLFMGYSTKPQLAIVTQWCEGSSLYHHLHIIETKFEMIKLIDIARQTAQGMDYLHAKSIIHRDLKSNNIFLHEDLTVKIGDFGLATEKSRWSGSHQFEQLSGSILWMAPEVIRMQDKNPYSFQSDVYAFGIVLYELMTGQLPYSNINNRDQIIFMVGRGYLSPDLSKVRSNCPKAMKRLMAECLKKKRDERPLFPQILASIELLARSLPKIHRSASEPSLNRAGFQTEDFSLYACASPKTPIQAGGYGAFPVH
Sequence of BRAF (P15056 whole entry): as the sequence (P15056 whole entry V600E) above, with E600V counted along it

One may read the inhibition as the change of the read-out against control, counted positive when it falls. What is called IC50 is the concentration that gives 50% inhibition. For the compound `O=C(Nc1cccc(C(=O)c2ccc3ncc(N4CCCC4)nc3c2)c1)c1cccc(C(F)(F)F)c1` [Compound C122, N-(3-(3-(pyrrolidin-1-yl)quinoxaline-6-carbonyl)phenyl)-3-(trifluoromethyl)benzamide], the inhibition at 1 µM at BRAF was 70 to 89%; at BRAF V600E (1 μM compound), > 89%; at KDR (VEGFR2) (1 μM compound), > 89%. Further, the IC50 is < 100 nM on BRAF V600E, < 100 nM at KDR (VEGFR2), 1000 to 5000 nM in the test on A375 cells (setting [1]) and 2000 to 5000 nM in the test with A549 cells (setting [2]).
Take `O=C(Nc1ccc(F)c(F)c1)Nc1ccc(F)c(C(=O)c2ccc3ncc(NCCO)nc3c2)c1` [Compound C087, 1-(3,4-difluorophenyl)-3-(4-fluoro-3-(3-((2-hydroxyethyl)amino)quinoxaline-6-carbonyl)phenyl)urea]: the inhibition at 1 µM at BRAF, on BRAF V600E (1 μM compound) and at KDR (VEGFR2) (1 μM compound) was > 89% throughout. Further, the IC50 in the test on A375 cells (setting [1]) is < 1000 nM; in the test on A549 cells (setting [2]), 2000 to 5000 nM.
In the case of `O=C(Nc1cccc(C(=O)c2ccc3nccnc3c2)c1)c1ccc(Cl)c(C(F)(F)F)c1` [Compound C111, 4-chloro-N-(3-(quinoxaline-6-carbonyl)phenyl)-3-(trifluoromethyl)benzamide], the inhibition at 1 µM at BRAF is < 70%; at BRAF V600E (1 μM compound) it was 70 to 89%; on KDR (VEGFR2) (1 μM compound), < 70%. Besides, the results for the IC50 in the test with A375 cells (setting [1]) and in the test on A549 cells (setting [2]) were > 5000 nM and < 2000 nM, respectively.
Turning to `O=C(Nc1cccc(C(=O)c2ccc3ncc(-c4cn[nH]c4)nc3c2)c1)Nc1ccc(Cl)c(C(F)(F)F)c1` [Compound C029, 1-(3-(3-(1H-pyrazol-4-yl)quinoxaline-6-carbonyl)phenyl)-3-(4-chloro-3-(trifluoromethyl)phenyl)urea], the inhibition at 1 µM is 70 to 89% at BRAF, > 89% on BRAF V600E (1 μM compound) and > 89% on KDR (VEGFR2) (1 μM compound). Besides, the IC50 on BRAF V600E was < 100 nM; on KDR (VEGFR2), < 100 nM; in the test with A375 cells (setting [1]), 1000 to 5000 nM; in the test on A549 cells (setting [2]), 2000 to 5000 nM.
As to `O=C(Nc1cccc(C(=O)c2ccc3ncc(N4CCCC4)nc3c2)c1)Nc1cccc(C(F)(F)F)c1` [Compound C020, 1-(3-(3-(pyrrolidin-1-yl)quinoxaline-6-carbonyl)phenyl)-3-(3-(trifluoromethyl)phenyl)urea], the inhibition at 1 µM on BRAF is 70 to 89%; at BRAF V600E (1 μM compound), > 89%; on KDR (VEGFR2) (1 μM compound), > 89%. In addition, the IC50 in the test with A375 cells (setting [1]) is 1000 to 5000 nM; in the test with A549 cells (setting [2]) it was > 5000 nM.
For `O=C(Nc1ccc(F)c(F)c1)Nc1ccc(F)c(C(=O)c2ccc3ncc(N4CCOCC4)nc3c2)c1` [Compound C046, 1-(3,4-difluorophenyl)-3-(4-fluoro-3-(3-morphlinoquinoxaline-6-carbonyl)phenyl)urea], the inhibition at 1 µM on BRAF was 70 to 89%; at BRAF V600E (1 μM compound), > 89%; on KDR (VEGFR2) (1 μM compound), > 89%. Besides, the IC50 in the test on A375 cells (setting [1]) was < 1000 nM; in the test with A549 cells (setting [2]), < 2000 nM.
Take `O=C(Nc1ccc(F)c(C(=O)c2ccc3ncc(N4CCOCC4)nc3c2)c1)Nc1ccc(Cl)c(C(F)(F)F)c1` [Compound C030, 1-(4-chloro-3-(trifluoromethyl)phenyl)-3-(4-fluoro-3-(3-morpholinoquinoxaline-6-carbonyl)phenyl)urea]: the results for the inhibition at 1 µM on BRAF, on BRAF V600E (1 μM compound) and at KDR (VEGFR2) (1 μM compound) were < 70%, 70 to 89% and > 89%, respectively. The IC50 was > 100 nM on BRAF V600E, < 100 nM on KDR (VEGFR2), < 1000 nM with A375 cells (setting [1]) and 2000 to 5000 nM with A549 cells (setting [2]).
With `O=C(Nc1cccc(C(=O)c2ccc3nccnc3c2)c1)Nc1cc(C(F)(F)F)ccc1Cl` [Compound C002, 1-(2-chloro-5-(trifluoromethyl)phenyl)-3-(3-(quinoxaline-6-carbonyl)phenyl)urea], the inhibition at 1 µM on BRAF was 70 to 89%; at BRAF V600E (1 μM compound) it was > 89%; on KDR (VEGFR2) (1 μM compound) it was < 70%. Besides, the IC50 in the test on A375 cells (setting [1]) was 1000 to 5000 nM; in the test with A549 cells (setting [2]), < 2000 nM.
The like results for `O=C(Nc1cccc(F)c1)Nc1cc(F)c(F)c(C(=O)c2ccc3ncc(N4CCOCC4)nc3c2)c1` [Compound C039, 1-(3,4-difluoro-5-(3-morpholinoquinoxaline-6-carbonyl)phenyl)-3-(3-fluorophenyl)urea] were, in that order, 70 to 89%, > 89%, 70 to 89%, 1000 to 5000 nM and 2000 to 5000 nM.
The like results for `O=C(Nc1cccc(C(F)(F)F)c1)Nc1ccc(F)c(C(=O)c2ccc3ncc(N4CCNCC4)nc3c2)c1` [Compound C085, 1-(4-fluoro-3-(3-(piperazin-1-yl)quinoxaline-6-carbonyl)phenyl)-3-(3-(trifluoromethyl)phenyl)urea] were, in that order, > 89%, > 89%, > 89%, < 1000 nM and < 2000 nM.
The like results for `O=C(Nc1ccc(Cl)c(Cl)c1)Nc1ccc(F)c(C(=O)c2ccc3nccnc3c2)c1` [Compound C076, 1-(3,4-dichlorophenyl)-3-(4-fluoro-3-(quinoxaline-6-carbonyl)phenyl)urea] were, in that order, 70 to 89%, > 89%, 70 to 89%, < 1000 nM and 2000 to 5000 nM.
With `O=C(Nc1cc(F)c(F)c(C(=O)c2ccc3ncc(N4CCOCC4)nc3c2)c1)c1cccc(F)c1` [Compound C144, N-(3,4-difluoro-5-(3-morpholinoquinoxaline-6-carbonyl)phenyl)-3-fluorobenzamide], the inhibition at 1 µM at BRAF was 70 to 89%; on BRAF V600E (1 μM compound), > 89%; on KDR (VEGFR2) (1 μM compound) it was 70 to 89%. Moreover, the IC50 in the test with A375 cells (setting [1]) was in the range of 1000 to 5000 nM; in the test on A549 cells (setting [2]), 2000 to 5000 nM.
For the compound `O=C(Nc1cc(F)c(F)c(C(=O)c2ccc3ncc(N4CCOCC4)nc3c2)c1)c1cccc(C(F)(F)F)c1` [Compound C145, N-(3,4-difluoro-5-(3-morpholinoquinoxaline-6-carbonyl)phenyl)-3-(trifluoromethyl)benzamide], the inhibition at 1 µM on BRAF was < 70%; at BRAF V600E (1 μM compound), > 89%; on KDR (VEGFR2) (1 μM compound), > 89%. In addition, the IC50 was < 100 nM at BRAF V600E, < 100 nM on KDR (VEGFR2), < 1000 nM in the test on A375 cells (setting [1]) and > 5000 nM with A549 cells (setting [2]).
As to `O=C(Nc1cccc(C(F)(F)F)c1)Nc1ccc(F)c(C(=O)c2ccc3ncc(N4CCOCC4)nc3c2)c1` [Compound C036, 1-(4-fluoro-3-(3-morpholinoquinoxaline-6-carbonyl)phenyl)-3-(3-(trifluoromethyl)phenyl)urea], the inhibition at 1 µM was < 70% at BRAF, 70 to 89% at BRAF V600E (1 μM compound) and > 89% on KDR (VEGFR2) (1 μM compound). Moreover, the IC50 is < 100 nM on BRAF V600E, < 100 nM on KDR (VEGFR2), < 1000 nM in the test with A375 cells (setting [1]) and < 2000 nM in the test on A549 cells (setting [2]).
For “1-(fluorophenyl)-3-(2,4,5-trifluoro-3-(quinoxaline-6-carbonyl)phenyl)urea [Compound C005]”, on BRAF, the “% inhibition at 1 μM against BRAF” value is listed as “+ (less than 70% inhibition)”. Also, the “% inhibition at 1 μM against BRAF V600E” value on BRAF V600E (1 μM compound) is “++ (between 70% and 89% inhibition)”. Besides, the “% inhibition at 1 μM against KDR” value at KDR (VEGFR2) (1 μM compound) is given as “+ (less than 70% inhibition)”. Besides, the IC50 in the test on A375 cells (72 h exposure) and in the test on A549 cells (72 h exposure) was > 5000 nM each time.
As for `O=C(Nc1cccc(C(F)(F)F)c1)Nc1cc(F)c(F)c(C(=O)c2ccc3ncc(N4CCOCC4)nc3c2)c1` [Compound C040, 1-(3,4-difluoro-5-(3-morpholinoquinoxaline-6-carbonyl)phenyl)-3-(3-(trifluoromethyl)phenyl)urea], the results for the inhibition at 1 µM at BRAF, on BRAF V600E (1 μM compound) and on KDR (VEGFR2) (1 μM compound) were < 70%, 70 to 89% and 70 to 89%, respectively. Besides, the IC50 at BRAF V600E is > 100 nM; on KDR (VEGFR2), > 100 nM; with A375 cells (setting [1]), < 1000 nM; in the test with A549 cells (setting [2]), < 2000 nM.
